Measured values as given in patent US20200323950A1, “ANTIBACTERIAL PEPTIDES AND COMBINATIONS FOR CO-THERAPY” (priority 2017, published 2020).
Values joined by “and” are separate entries in the source; they are usually repeats but may differ in a detail not shown here. Identical values can stand only once. *1 amine or outer side, *2 acyl side, *3 side chain or, on linkers, in order; H or OH if unused. Where a SMILES comes first, the peptide text is derived from it. Bridges are numbered along the chain shown (N, C = ends). Roman numbers before positions name the chains, in order. Where no end group is shown, it is not given here. [ ]: non-standard residue; d: D form. The star is where a group is joined. X2 = O=C1NC(=O)C(SC[C@@H](CO)N[*:2])=C1SC[C@@H](CO)N[*:1]; BMH = O=C1CC([*:1])C(=O)N1CCCCCCN1C(=O)CC([*:2])C1=O; Maleimide(3,4-diyl) = O=C1NC(=O)C([*:2])=C1[*:1]; pXylylene = c1cc(C[*:2])ccc1C[*:1]; aThr = C[C@H](O)[C@H](N)C(=O)O; Ac6c = NC1(C(=O)O)CCCCC1; X1 = C(=C\C[*:2])/C[*:1]; Dab = NCC[C@H](N)C(=O)O; Nva = CCC[C@H](N)C(=O)O; NHNH2 = NN*

How the values were obtained:
[1] = system: K. pneumoniae ATCC 13883; test: Antibacterial assay (MIC); format: cell-based; conditions: K. pneumoniae ATCC 13883, MHB, 37° C.
Procedure: (§1) Antibacterial assay. Antibacterial assays are undertaken to determine the minimal inhibitory concentrations (MIC) as described previouslyl^6.
(§2) Antibacterial activity. Each C-terminal modified PrAMP DTM-linked tetramer is assayed against nosocomial Gram-negative bacteria, including E. coli ATCC 29222, K. pneumoniae ATCC 13883, A. baumannii ATCC 19606 and P. aeruginosa ATCC 47085.

[2] = system: P. aeruginosa ATCC 47085; test: Antibacterial assay (MIC); format: cell-based; conditions: P. aeruginosa ATCC 47085, MHB, 37° C.
Procedure: as §1, §2

[3] = system: E. coli ATCC 29222; test: Antibacterial assay (MIC); format: cell-based; conditions: E. coli ATCC 29222, MHB, 37° C.
Procedure: as §1, §2

[4] = system: A. baumannii ATCC 19606; test: Antibacterial assay (MIC); format: cell-based; conditions: A. baumannii ATCC 19606, MHB, 37° C.
Procedure: as §1, §2

[5] = system: Acinetobacter baumannii BAA-1605; format: cell-based; conditions: A. baumannii BAA-1605
Procedure: In vitro activity and synergy. Minimal inhibitory concentration (MIC) assays were performed using sterile 96-well polypropylene plates in a final volume of 100 mL. Briefly, 50 μL of midlogarithmic phase bacterial cultures were diluted to 5×10^5 CFU/mL in Mueller-Hinton broth (MHB) and then added to 50 μL of the serially diluted antibiotic. […] MICs were identified as the lowest antimicrobial concentrations at which turbidity was not observed. Antimicrobial synergy was determined by evaluating the fractional inhibitory concentration (FIC) index and was characterized by a conventional checkerboard assay (Fernandez-Cuenca et al., 2003).

[6] = system: Klebsiella pneumoniae K97/09; test: Checkerboard synergy assay (FIC index); format: cell-based; conditions: K. pneumoniae K97/09
Procedure: In vitro activity and synergy. Minimal inhibitory concentration (MIC) assays were performed using sterile 96-well polypropylene plates in a final volume of […]. Briefly, 50 μL of midlogarithmic phase bacterial cultures were diluted to 5×10^5 CFU/mL in Mueller-Hinton broth (MHB) and then added to 50 μL of the serially diluted antibiotic. The highest A3-APO and other test compound concentration evaluated was 256 mg/L. Cultures were incubated at 37° C. for 16-20 h without shaking. MICs were identified as the lowest antimicrobial concentrations at which turbidity was not observed. Antimicrobial synergy was determined by evaluating the fractional inhibitory concentration (FIC) index and was characterized by a conventional checkerboard assay (Fernandez-Cuenca et al., 2003). Bacteria grown to mid-logarithmic phase in MHB were pre-incubated with serially diluted concentrations of peptides such as A3-APO, and the antimicrobial controls, imipenem, colistin or meropenem.
The sum of the FICs (Σ FIC) was calculated with the equation Σ FIC=FICA+FICB=(CA/MICA)+(CB/MICB), where MICA and MICB are the MICs of antimicrobial A and B alone, respectively, and CA and CB are the concentrations of the drugs when combined, respectively. Synergy was defined as a Σ FICs≤0.5 and additive activity was defined as a Σ FICs>0.5≤1.0.

[7] = system: multidrug-resistant Acinetobacter baumannii BAA-1605; conditions: A. baumannii BAA-1605, compound alone
[8] = system: multidrug-resistant Klebsiella pneumoniae K97/09; conditions: K. pneumoniae K97/09, compound alone

For “I: [Ac6c]RPDKPRPYLPRPRPPRPVR[Dab] / II: [Ac6c]RPDKPRPYLPRPRPPRPVR[Dab] / III: [Ac6c]RPDKPRPYLPRPRPPRPVR / IV: [Ac6c]RPDKPRPYLPRPRPPRPVR (amide I:21-III:C, II:21-IV:C; linker I:C-II:C via X2) [tetramer-DTM-ol]”, the “Antibacterial activity, MIC” value [1] was 2.20 ± 0.01 µM, the “Antibacterial activity, MIC” value [2] was 1.86 ± 0.07 µM and the “Antibacterial activity, MIC” value [3] was 3.67 ± 0.25 µM. For the same compound, the “Antibacterial activity, MIC” value [4] was 11.61 ± 1.44 µM.
In the case of “I: [Ac6c]RPDKPRPYLPRPRPPRPVR[Dab]C-NHNH2 / II: [Ac6c]RPDKPRPYLPRPRPPRPVR[Dab]C-NHNH2 / III: [Ac6c]RPDKPRPYLPRPRPPRPVR / IV: [Ac6c]RPDKPRPYLPRPRPPRPVR (amide I:21-III:C, II:21-IV:C; linker I:22-II:22 via BMH) [tetramer-bismal-NHNH2]”, the “Antibacterial activity, MIC” value [1] is reported as 3.18 ± 0.03 µM, the “Antibacterial activity, MIC” value [2] is reported as 1.62 ± 0.11 µM and the “Antibacterial activity, MIC” value [3] is reported as 3.93 ± 0.04 µM. The “Antibacterial activity, MIC” value [4] was 10.35 ± 0.22 µM.
For `CCC[C@H](NC(=O)[C@H](CCC(=O)O)NC(=O)[C@@H](N)[C@H](C)O)C(=O)N[C@H](C(=O)N[C@@H](C)C(=O)N[C@@H](CC(C)C)C(=O)N[C@@H](CO)C(=O)N[C@@H](CCCNC(=N)N)C(=O)NC1(C(N)=O)CCCCC1)C(C)C` [Allo-aca] (H-[aThr]E[Nva]VALSR[Ac6c]-NH2; N-terminus and C-terminus assumed), the “improvement in the MIC values when added together with imipenem or colistin” value [5] was “failed to exert any improvement” and the “improvement in the MIC values when added together with imipenem or colistin” value [6] was “failed to exert any improvement”.
With “I: H-[Ac6c]RPDKPRPYLPRPRPPRPVR[Dab]-NH2 / II: H-[Ac6c]RPDKPRPYLPRPRPPRPVR (amide I:21-II:C) [A3-APO, (H-Chex-Arg-Pro-Asp-Lys-Pro-Arg-Pro-Tyr-Leu-Pro-Arg-Pro-Arg-Pro-Pro-Arg-Pro-Val-Arg)2-Dab]” the “Antibacterial activity, MIC” value [1] was 1.44 ± 0.12 µM, the “Antibacterial activity, MIC” value [2] was 3.13 ± 0.05 µM and the “Antibacterial activity, MIC” value [3] was 2.58 ± 1.14 µM. For the same compound, the “Antibacterial activity, MIC” value [4] was 8.00 ± 1.09 µM, the MIC [7] was 32 mg/L and the MIC [8] was 32 to 64 mg/L and 32 mg/L.
For “I: H-[Ac6c]RPDKPRPYLPRPRPPRPVR[Dab]C-NH2 / II: H-[Ac6c]RPDKPRPYLPRPRPPRPVR[Dab]C-NH2 / III: H-[Ac6c]RPDKPRPYLPRPRPPRPVR / IV: H-[Ac6c]RPDKPRPYLPRPRPPRPVR (amide I:21-III:C, II:21-IV:C; linker I:22-II:22 via Maleimide(3,4-diyl)) [tetramer-DTM-NH2]”, the “Antibacterial activity, MIC” value [1] was 2.33 ± 0.01 µM, the “Antibacterial activity, MIC” value [2] was 2.05 ± 0.08 µM and the “Antibacterial activity, MIC” value [3] was 2.96 ± 0.99 µM. For the same compound, the “Antibacterial activity, MIC” value [4] was 13.29 ± 0.10 µM.
In the case of “I: H-[Ac6c]RPDKPRPYLPRPRPPRPVR[Dab]-NHNH2 / II: H-[Ac6c]RPDKPRPYLPRPRPPRPVR (amide I:21-II:C) [dimer-NHNH2]”, the “Antibacterial activity, MIC” value [1] is reported as 3.63 ± 0.02 µM, the “Antibacterial activity, MIC” value [2] is reported as 3.01 ± 0.18 µM and the “Antibacterial activity, MIC” value [3] is reported as 2.99 ± 1.00 µM. For the same compound, the “Antibacterial activity, MIC” value [4] was 5.31 ± 0.73 µM.
In the case of “I: [Ac6c]RPDKPRPYLPRPRPPRPVR[Dab]C-NHNH2 / II: [Ac6c]RPDKPRPYLPRPRPPRPVR[Dab]C-NHNH2 / III: [Ac6c]RPDKPRPYLPRPRPPRPVR / IV: [Ac6c]RPDKPRPYLPRPRPPRPVR (amide I:21-III:C, II:21-IV:C; linker I:22-II:22 via X1) [tetramer-butene-NHNH2]”, the “Antibacterial activity, MIC” value [1] is reported as 0.81 ± 0.02 µM, the “Antibacterial activity, MIC” value [2] is reported as 0.77 ± 0.02 µM and the “Antibacterial activity, MIC” value [3] is reported as 0.94 ± 0.04 µM. The “Antibacterial activity, MIC” value [4] was 1.89 ± 0.63 µM.
In the case of “I: [Ac6c]RPDKPRPYLPRPRPPRPVR[Dab]C-NHNH2 / II: [Ac6c]RPDKPRPYLPRPRPPRPVR[Dab]C-NHNH2 / III: [Ac6c]RPDKPRPYLPRPRPPRPVR / IV: [Ac6c]RPDKPRPYLPRPRPPRPVR (amide I:21-III:C, II:21-IV:C; linker I:22-II:22 via pXylylene) [tetramer-xylene-NHNH2]”, the “Antibacterial activity, MIC” value [1] is reported as 4.49 ± 0.56 µM, the “Antibacterial activity, MIC” value [2] is reported as 1.51 ± 0.33 µM and the “Antibacterial activity, MIC” value [3] is reported as 6.24 ± 0.53 µM. The “Antibacterial activity, MIC” value [4] was 12.70 ± 0.96 µM.
